In ChEMBL document CHEMBL3885881, “DrugMatrix”:

Species on record: Rattus norvegicus
Experiment: DrugMatrix - Regimen: Daily Repeat
Format: toxicity, organism-based, Sprague-Dawley
Design: regimen Daily Repeat, gender Male, age 6-8 weeks
Conditions: in vivo, po, 0 mg/kg, route oral GAVAGE, dose level Control, vehicle .5 % CMC; for ABSOLUTE BASOPHIL / ABSOLUTE EOSINOPHIL / ABSOLUTE LYMPHOCYTE / ABSOLUTE MONOCYTE / ABSOLUTE SEGMENTED NEUTROPHIL / BASOPHIL / EOSINOPHIL / ERYTHROCYTE COUNT / HEMATOCRIT / HEMOGLOBIN / LEUKOCYTE COUNT / LYMPHOCYTE / MEAN CORPUSCULAR HEMOGLOBIN / MEAN CORPUSCULAR HEMOGLOBIN CONCENTRATION / MEAN CORPUSCULAR VOLUME / MONOCYTE / NEUTROPHIL / PLATELET COUNT: tissue Blood; for ALANINE AMINOTRANSFERASE / ALBUMIN / ALKALINE PHOSPHATASE / ASPARTATE AMINOTRANSFERASE / BLOOD UREA NITROGEN / CHLORIDE / CHOLESTEROL / CREATINE PHOSPHOKINASE / CREATININE / GLUCOSE / LACTATE DEHYDROGENASE / LIPASE / PHOSPHORUS / POTASSIUM / SODIUM / TOTAL BILIRUBIN / TOTAL PROTEIN / URIC ACID: tissue Plasma

## O=c1cc(-c2ccccc2)oc2c1ccc1ccccc12 [ALPHA-NAPHTHOFLAVONE]
120 h, time 5 day
  ABSOLUTE BASOPHIL: 92 cells/µL
  ABSOLUTE EOSINOPHIL: 52 cells/µL
  ABSOLUTE LYMPHOCYTE: 6560 cells/µL
  ABSOLUTE MONOCYTE: 160 cells/µL
  ABSOLUTE SEGMENTED NEUTROPHIL: 1130 cells/µL
  BASOPHIL: 1.14%
  EOSINOPHIL: 0.68%
  ERYTHROCYTE COUNT: 7.51 x10E6/uL
  HEMATOCRIT: 46.04%
  HEMOGLOBIN: 15.62 G/DL
  LEUKOCYTE COUNT: 8.03 x10E3/uL
  LYMPHOCYTE: 81.54%
  MEAN CORPUSCULAR HEMOGLOBIN: 20.84 pg
  MEAN CORPUSCULAR HEMOGLOBIN CONCENTRATION: 33.94 G/DL
  MEAN CORPUSCULAR VOLUME: 61.42 fL
  MONOCYTE: 2%
  NEUTROPHIL: 14.24%
  PLATELET COUNT: 1427.2 x10E3/uL
  ALANINE AMINOTRANSFERASE: 35.6 u/L
  ALBUMIN: 3.64 G/DL
  ALKALINE PHOSPHATASE: 233 u/L
  ASPARTATE AMINOTRANSFERASE: 81 u/L
  BLOOD UREA NITROGEN: 12 mg/dL
  CHLORIDE: 109.4 MEQ/L
  CHOLESTEROL: 47.6 mg/dL
  CREATINE PHOSPHOKINASE: 183.2 u/L
  CREATININE: 0.4 mg/dL
  GLUCOSE: 134.6 mg/dL
  LACTATE DEHYDROGENASE: 89.4 u/L
  LIPASE: 17.2 u/L
  PHOSPHORUS: 13.02 mg/dL
  POTASSIUM: 7 MEQ/L
  SODIUM: 149.6 MEQ/L
  TOTAL BILIRUBIN: 0.18 mg/dL
  TOTAL PROTEIN: 6.06 G/DL
  URIC ACID: 1.04 mg/dL
2184 h, time 91 day
  ABSOLUTE BASOPHIL: 130 cells/µL
  ABSOLUTE EOSINOPHIL: 70 cells/µL
  ABSOLUTE LYMPHOCYTE: 8670 cells/µL
  ABSOLUTE MONOCYTE: 160 cells/µL
  ABSOLUTE SEGMENTED NEUTROPHIL: 1530 cells/µL
  BASOPHIL: 1.13%
  EOSINOPHIL: 0.66%
  ERYTHROCYTE COUNT: 9.13 x10E6/uL
  HEMATOCRIT: 48.47%
  HEMOGLOBIN: 16.56 G/DL
  LEUKOCYTE COUNT: 10.5 x10E3/uL
  LYMPHOCYTE: 81.63%
  MEAN CORPUSCULAR HEMOGLOBIN: 18.16 pg
  MEAN CORPUSCULAR HEMOGLOBIN CONCENTRATION: 34.14 G/DL
  MEAN CORPUSCULAR VOLUME: 53.14 fL
  MONOCYTE: 1.53%
  NEUTROPHIL: 14.71%
  PLATELET COUNT: 1280.22 x10E3/uL
  ALANINE AMINOTRANSFERASE: 28.89 u/L
  ALBUMIN: 3.69 G/DL
  ALKALINE PHOSPHATASE: 101.11 u/L
  ASPARTATE AMINOTRANSFERASE: 70.67 u/L
  BLOOD UREA NITROGEN: 16.78 mg/dL
  CHLORIDE: 104.56 MEQ/L
  CHOLESTEROL: 58.78 mg/dL
  CREATINE PHOSPHOKINASE: 91.22 u/L
  CREATININE: 0.61 mg/dL
  GLUCOSE: 142.33 mg/dL
  LACTATE DEHYDROGENASE: 81.67 u/L
  LIPASE: 13 u/L
  PHOSPHORUS: 7.54 mg/dL
  POTASSIUM: 6.27 MEQ/L
  SODIUM: 149.89 MEQ/L
  TOTAL BILIRUBIN: 0.19 mg/dL
  TOTAL PROTEIN: 7.12 G/DL
  URIC ACID: 0.97 mg/dL
[…], time 28 day
  ABSOLUTE BASOPHIL: 150 cells/µL
  ABSOLUTE EOSINOPHIL: 54 cells/µL
  ABSOLUTE LYMPHOCYTE: 8890 cells/µL
  ABSOLUTE MONOCYTE: 190 cells/µL
  ABSOLUTE SEGMENTED NEUTROPHIL: 2250 cells/µL
  BASOPHIL: 1.26%
  EOSINOPHIL: 0.46%
  ERYTHROCYTE COUNT: 8.34 x10E6/uL
  HEMATOCRIT: 48.66%
  HEMOGLOBIN: 16.04 G/DL
  LEUKOCYTE COUNT: 11.58 x10E3/uL
  LYMPHOCYTE: 76.74%
  MEAN CORPUSCULAR HEMOGLOBIN: 19.2 pg
  MEAN CORPUSCULAR HEMOGLOBIN CONCENTRATION: 32.92 G/DL
  MEAN CORPUSCULAR VOLUME: 58.32 fL
  MONOCYTE: 1.76%
  NEUTROPHIL: 19.44%
  PLATELET COUNT: 1282.6 x10E3/uL
  ALANINE AMINOTRANSFERASE: 27 u/L
  ALBUMIN: 3.68 G/DL
  ALKALINE PHOSPHATASE: 146.2 u/L
  ASPARTATE AMINOTRANSFERASE: 66.6 u/L
  BLOOD UREA NITROGEN: 12.4 mg/dL
  CHLORIDE: 104.6 MEQ/L
  CHOLESTEROL: 59.6 mg/dL
  CREATINE PHOSPHOKINASE: 121.8 u/L
  CREATININE: 0.6 mg/dL
  GLUCOSE: 143 mg/dL
  LACTATE DEHYDROGENASE: 87.8 u/L
  LIPASE: 17.4 u/L
  PHOSPHORUS: 8.68 mg/dL
  POTASSIUM: 6.02 MEQ/L
  SODIUM: 152.8 MEQ/L
  TOTAL BILIRUBIN: 0.26 mg/dL
  TOTAL PROTEIN: 6.92 G/DL
  URIC ACID: 0.52 mg/dL
